Assay results taken from patent US20090274577A1, “STE[…] TREATMENT WITH REDUCTANT AND OXIDANT” (priority 2008, published 2009).

Test system: Bacillus atrophaeus spores
Experiment: Filtering test: spores incubated in test solution, filtered, filter half treated with ozone, colonies counted
Type: cell-based
From the text: Bacterial spores: Stainless steel discs with Bacillus atrophaeus spores (log 6, cat #1-6100ST, Raven Biological Laboratories).
An ozone generator provided ˜350 ppm O3, and a flow rate of ˜25 l/min, using setting No. 1.
Commercially available sterile single filters (pore size 0.45 μm) and an analytical test filter funnel from Nalgene was used (F-2161, Sigma-Aldrich). For suction, a Rietschle Thomas DTF 6 vacuum pump was used, with a flow rate of ˜6 m3/h, providing a vacuum of ˜150 mbar abs.
Filtering test: In filtering test experiments the spore solutions were prepared in a volume of 1 ml and processed. Thereto, after an incubation period of 5 min in the appropriate buffer at 40° C. using a rotary shaker, an aliquot of 250 μl of the suspension was transferred onto a sterile single use filters. The filter was washed two times with 10 ml of sterile water. The filter was retrieved under sterile conditions, and the filter was cut into halves using a sterile scissor. Only one half of the filter was treated with ozone, while the other half was kept as control, i.e. without ozone treatment. Finally, both halves were placed onto a TSA plate and incubated at 30° C. Initially Nutrient Agar plates were used, but later on a switch was made to TSA plates, in order to utilize the more pronounced reddish colour of Bacillus atrophaeus colonies which was facilitating analysis and documentation. […]

With `OC(CS)C(O)CS` (racemic) [DTT, DL-dithiotreitol] as the compound, how does the “reduction of viability of Bacillus atrophaeus” value (liquid media comprising reductant, then sterile air with ~350 ppm ozone for 5 or 10 min) read?
Its value is 3-5 logs.

And the “sterilizing/disinfecting/killing effect (in words)” value (test solution followed by ~350 ppm ozone, 5 or 10 min)?
The value was “improved”.
